Holding throughout (type): in vivo
In one data set the test system is Veronica. The experiment in a line: Pre-emergence test, Veronica. The following applies: application rate 250 g/ha, after three weeks. On the procedure: (§1) Pre-emergence Test Solvent: 3 parts by weight of acetone Emulsifier: 1 part by weight of alkylaryl polyglycol ether To produce a suitable preparation of active compound, 1 part by weight of active compound is mixed with the stated amount of solvent, the stated amount of emulsifier is added and the concentrate is diluted with water to the desired concentration. Seeds of the test plants are sown in normal soil and, after 24 hours, watered with the preparation of the active compound. It is expedient to keep constant the amount of water per unit area. The concentration of the active compound in the preparation is of no importance, only the amount of active compound applied per unit area being decisive. After three weeks, the degree of damage to the plants is rated in % damage in comparison to the development of the untreated control. The figures denote: 0%=no action (like untreated control) 100%=total destruction

Data set [1] has as its system soya beans. Kind of data set: Pre-emergence test, tolerance by soya beans. The conditions noted are these: application rate 250 g/ha. On the procedure:
as §1

Data set [2] deals with Alopecurus. The experiment in a line: Pre-emergence test, Alopecurus. The following applies: application rate 250 g/ha, after three weeks. On the procedure: as §1
The next data set concerns Chenopodium. The experiment in a line: Pre-emergence test, Chenopodium. The following applies: application rate 250 g/ha, after three weeks. On the procedure: as §1
The next data set relates to Digitaria. Kind of data set: Pre-emergence test, Digitaria. The following applies: application rate 250 g/ha, after three weeks. On the procedure:
as §1

The subject of data set [3] is green rice leafhopper (Nephotettix cinticeps). Kind of data set: Nephotettix test. The conditions noted are these: after 6 days; active compound concentration 0.1%; rice seedlings dipped. On the procedure:
(§2) Solvent: 7 parts by weight of dimethylformamide
(§3) Emulsifier: 1 part by weight of alkylaryl polyglycol ether
(§4) To produce a suitable preparation of active compound, 1 part by weight of active compound is mixed with the stated amount of solvent and the stated amount of emulsifier, and the concentrate is diluted with water to the desired concentration.
Rice seedlings (Oryza sativa) are treated by being dipped into the preparation of active compound of the desired concentration and are infested with the green rice leafhopper (Nephotettix cinticeps) while the leaves are still moist.
After the specified period of time, the destruction in % is determined. 100% means that all the leafhoppers have been killed; 0% means that none of the leafhoppers have been killed.

For the next data set, the system named is Echinochloa. The experiment in a line: Pre-emergence test, Echinochloa. The conditions noted are these: application rate 250 g/ha, after three weeks. On the procedure:
as §1

In data set [4] the test system is greenhouse red spider mite (Tetranychus urticae). Kind of data set: Tetranychus test (OP-resistant). The conditions noted are these: after 13 days; active compound concentration 0.1%; infested bean shoots dipped. On the procedure: Tetranychus Test (OP-resistant)
as §2, §3, §4
Bean shoots (Phaseolus vulgaris) which are severely infested with the greenhouse red spider mite (Tetranychus urticae) are dipped into a preparation of the active compound of the desired concentration.
After the specified period of time, the destruction in % is determined. 100% means that all the spider mites have been killed; 0% means that none of the spider mites have been killed.

Data set [5] concerns Alopecurus. The experiment in a line: Post-emergence test, Alopecurus. The conditions noted are these: application rate 125 g/ha, after three weeks. On the procedure:
(§5) Post-emergence Test Solvent: 5 parts by weight of acetone Emulsifier: 1 part by weight of alkylaryl polyglycol ether To produce a suitable preparation of active compound, 1 part by weight of active compound is mixed with the stated amount of solvent, the stated amount of emulsifier is added and the concentrate is diluted with water to the desired concentration. Test plants which have a height of 5-15 cm are sprayed with the preparation of the active compound in such a way as to apply the particular amounts of active compound desired per unit area. The concentration of the spray liquor is so chosen that the particular amounts of active compound desired are applied in 2000 l of water/ha. After three weeks, the degree of damage to the plants is. rated in % damage in comparison to the development of the untreated control. The figures denote: 0%=no action (like untreated control) 100%=total destruction

The subject of data set [6] is soya beans. Kind of data set: Post-emergence test, tolerance by soya beans. The conditions noted are these: application rate 125 g/ha. On the procedure:
as §5

The subject of a further data set is Avena fatua. Kind of data set: Post-emergence test, Avena fatua. The following applies: application rate 125 g/ha, after three weeks. On the procedure: as §5
The next data set relates to Setaria. The experiment in a line: Post-emergence test, Setaria. The conditions noted are these: application rate 125 g/ha, after three weeks. On the procedure: as §5
The subject of a further data set is maize. Kind of data set: Pre-emergence test, tolerance by maize. The following applies: application rate 250 g/ha. On the procedure: as §1
In a further data set the test system is Abutilon. Kind of data set: Pre-emergence test, Abutilon. The following applies: application rate 250 g/ha, after three weeks. On the procedure:
as §1

The subject of the next data set is Alopecurus myosuroides. Kind of data set: Pre-emergence test, Alopecurus myosuroides. The following applies: application rate 4000 g/ha, after three weeks. On the procedure:
as §1

Another data set relates to Beta vulgaris. The experiment in a line: Pre-emergence test, tolerance by Beta vulgaris. The conditions noted are these: application rate 4000 g/ha. On the procedure: as §1
Data set [7] relates to Boophilis Microplus Resistant/SP-resistant Parkhurst Strain. The experiment in a line: Test with Boophilis Microplus resistant/SP-resistant Parkhurst strain. The conditions noted are these: 20 μg/animal injected into the abdomen; adult females. On the procedure: Test with Boophilis Microplus Resistant/SP-resistant Parkhurst Strain
Test animals: adult females which have sucked themselves full
Solvent: dimethyl sulphoxide
20 mg of active substance are dissolved in 1 ml of dimethyl sulphoxide, and lesser concentrations are prepared by dilution with the same solvent.
The test is carried out in 5 replications. 1 μl of the solutions is injected into the abdomen, and the animals are transferred into dishes and kept in a controlled-environment cabinet. The activity is determined via the inhibition of oviposition. 100% means that no tick has deposited eggs.

Regarding `Cc1cc(C)c(C2=C(O)C3(CCC(C)CC3)NC2=O)c(C#N)c1` (single isomer, unassigned) [Example I-1-a-4], in the data set on Veronica, the “damage to Veronica” value is recorded as 100%. Further, the “tolerance by soya beans” value in the data set on soya beans [1] is given as “good tolerance”. Also, in the data set with Alopecurus [2], the “damage to Alopecurus” value came out at 100%. In the data set on Chenopodium, the “damage to Chenopodium” value worked out at 100%. Moreover, the “damage to Digitaria” value in the data set with Digitaria worked out at 100%. For the same compound, the destruction in % in [3] was found to be 100%. The “damage to Echinochloa” value in the data set on Echinochloa came out at 100%. Moreover, the “activity (destruction in %)” value in data set [4] is 100%.
As to `CCc1cc(C#N)cc(C)c1C1=C(O)C2(CCC(C)CC2)NC1=O` (single isomer, unassigned) [Example I-1-a-5], the “damage to Alopecurus” value in the data set with Alopecurus [5] is on record as “at least 80%”. The “tolerance by soya beans” value in the data set on soya beans [6] is “good tolerance”. The “damage to Avena fatua” value with Avena fatua was “at least 80%”. Further, the “damage to Setaria” value in the data set on Setaria is “at least 80%”. For the same compound, the destruction in % in data set [3] is reported as 100%. Further, in data set [4], the “activity (destruction in %)” value is given as 100%.
Regarding `Cc1cc(C#N)cc(C)c1C1=C(O)C2(CCC(C)CC2)NC1=O` (single isomer, unassigned) [Example I-1-a-6], in the data set with maize, the tolerance by maize result is on record as “good tolerance”. Further, the “damage to Abutilon” value in the data set with Abutilon was found to be 80%. The destruction in % in [3] was determined as 100%. In data set [4], the “activity (destruction in %)” value was determined as 100%.
Take `CC1CCC2(CC1)NC(=O)C(c1ccc(S(C)(=O)=O)cc1Cl)=C2O` (stereo not drawn) [Example I-1-a-1]: the “damage to Alopecurus myosuroides” value in the data set with Alopecurus myosuroides was found to be 80%. For the same compound, the “tolerance by Beta vulgaris” value in the data set on Beta vulgaris is listed as “good tolerance”. Also, the “activity (inhibition of oviposition)” value in [7] is reported as 100%. Besides, the destruction in % in data set [3] worked out at 100%.
`CCOC(=O)OC1=C(c2ccc(S(C)(=O)=O)cc2Cl)C(=O)NC12CCC(C)CC2` (stereo not drawn) [Example I-1-c-1]: the “damage to Alopecurus myosuroides” value in the data set on Alopecurus myosuroides is on record as 80%. Also, the “tolerance by Beta vulgaris” value with Beta vulgaris is on record as “good tolerance”.

These data come from patent US6746990B2, “2-phenyl-substituted heterocyclic 1,3-ketoenols as herbicides and pesticides” (Bayer Aktiengesellschaft, priority 1995, dated 2004).
